Laboratory results from ChEMBL document CHEMBL5370603, “N-(2-Aminophenyl)-benzamide Inhibitors of Class I HDAC Enzymes with Antiproliferative and Antifibrotic Activity” (J Med Chem, 2023).
The source made the active and inactive calls. No cut-off for these calls is given here.

Legend:
Histone deacetylase 1 [1] = target: T1, Histone deacetylase 1 (Homo sapiens, UniProt Q13547); assay: Inhibition of human recombinant HDAC1 using Ac-Leu-Gly-Lys(Ac)-AMC as substrate preincubated with enzyme for 30 mins followed by substrate addition and measured after 90 mins by fluorescence based analysis
T1 sequence (Q13547 whole entry): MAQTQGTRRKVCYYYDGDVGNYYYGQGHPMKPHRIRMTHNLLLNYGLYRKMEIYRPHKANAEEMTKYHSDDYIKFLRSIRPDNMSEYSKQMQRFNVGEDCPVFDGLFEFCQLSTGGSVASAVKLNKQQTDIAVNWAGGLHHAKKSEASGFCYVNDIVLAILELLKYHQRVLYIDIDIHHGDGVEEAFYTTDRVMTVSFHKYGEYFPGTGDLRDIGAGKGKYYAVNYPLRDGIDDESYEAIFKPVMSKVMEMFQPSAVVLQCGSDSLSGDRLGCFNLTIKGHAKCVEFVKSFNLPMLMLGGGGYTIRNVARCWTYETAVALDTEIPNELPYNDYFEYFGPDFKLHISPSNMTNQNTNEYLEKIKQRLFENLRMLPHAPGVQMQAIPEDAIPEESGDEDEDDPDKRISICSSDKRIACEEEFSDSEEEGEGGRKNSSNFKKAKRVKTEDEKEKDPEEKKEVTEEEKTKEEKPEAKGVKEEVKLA

Histone deacetylase 2 = Histone deacetylase 2 (Homo sapiens, UniProt Q92769); assay: Inhibition of human recombinant HDAC2 using Ac-Leu-Gly-Lys(Ac)-AMC as substrate preincubated with enzyme for 30 mins followed by substrate addition and measured after 90 mins by fluorescence based analysis
Histone deacetylase 2, sequence (Q92769 whole entry): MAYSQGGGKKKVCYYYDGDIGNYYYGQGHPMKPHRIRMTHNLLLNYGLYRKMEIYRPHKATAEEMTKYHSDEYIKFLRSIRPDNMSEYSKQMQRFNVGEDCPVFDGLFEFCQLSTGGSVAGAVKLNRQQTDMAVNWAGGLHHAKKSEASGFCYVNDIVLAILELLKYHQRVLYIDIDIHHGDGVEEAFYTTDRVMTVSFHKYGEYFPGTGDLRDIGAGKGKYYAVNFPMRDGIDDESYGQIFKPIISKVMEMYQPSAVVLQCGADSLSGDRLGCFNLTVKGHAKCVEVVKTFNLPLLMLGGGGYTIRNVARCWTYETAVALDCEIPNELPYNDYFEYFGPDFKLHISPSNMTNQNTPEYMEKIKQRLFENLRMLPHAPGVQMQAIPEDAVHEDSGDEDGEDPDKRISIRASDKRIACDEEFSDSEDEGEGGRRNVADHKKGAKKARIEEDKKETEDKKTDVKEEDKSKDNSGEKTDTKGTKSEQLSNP

Histone deacetylase 3 = Histone deacetylase 3 (Homo sapiens, UniProt O15379); assay: Inhibition of human recombinant HDAC3 using Ac-Leu-Gly-Lys(Ac)-AMC as substrate preincubated with enzyme for 30 mins followed by substrate addition and measured after 90 mins by fluorescence based analysis
Histone deacetylase 3, sequence (O15379 whole entry): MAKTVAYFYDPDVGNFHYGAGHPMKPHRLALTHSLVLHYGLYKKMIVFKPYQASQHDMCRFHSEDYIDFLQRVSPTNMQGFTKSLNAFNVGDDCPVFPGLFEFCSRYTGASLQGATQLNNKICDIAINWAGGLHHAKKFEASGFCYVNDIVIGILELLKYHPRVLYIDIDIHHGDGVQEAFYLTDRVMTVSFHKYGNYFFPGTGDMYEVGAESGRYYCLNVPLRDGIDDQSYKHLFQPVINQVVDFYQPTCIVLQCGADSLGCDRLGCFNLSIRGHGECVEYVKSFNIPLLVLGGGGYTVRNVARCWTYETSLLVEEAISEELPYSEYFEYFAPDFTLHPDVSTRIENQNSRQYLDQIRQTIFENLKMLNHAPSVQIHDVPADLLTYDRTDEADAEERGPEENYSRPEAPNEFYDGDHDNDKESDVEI

[2] = target: T2, Protein deacetylase HDAC6 (Homo sapiens, UniProt Q9UBN7); assay: Inhibition of C-terminal FLAG-tagged human recombinant full length HDAC6 expressed in baculovirus expression system using Boc-Lys(Ac)-AMC as substrate preincubated with enzyme for 15 mins followed by substrate addition and measured after 60 mins by fluorescence based analysis
T2 sequence (Q9UBN7 whole entry): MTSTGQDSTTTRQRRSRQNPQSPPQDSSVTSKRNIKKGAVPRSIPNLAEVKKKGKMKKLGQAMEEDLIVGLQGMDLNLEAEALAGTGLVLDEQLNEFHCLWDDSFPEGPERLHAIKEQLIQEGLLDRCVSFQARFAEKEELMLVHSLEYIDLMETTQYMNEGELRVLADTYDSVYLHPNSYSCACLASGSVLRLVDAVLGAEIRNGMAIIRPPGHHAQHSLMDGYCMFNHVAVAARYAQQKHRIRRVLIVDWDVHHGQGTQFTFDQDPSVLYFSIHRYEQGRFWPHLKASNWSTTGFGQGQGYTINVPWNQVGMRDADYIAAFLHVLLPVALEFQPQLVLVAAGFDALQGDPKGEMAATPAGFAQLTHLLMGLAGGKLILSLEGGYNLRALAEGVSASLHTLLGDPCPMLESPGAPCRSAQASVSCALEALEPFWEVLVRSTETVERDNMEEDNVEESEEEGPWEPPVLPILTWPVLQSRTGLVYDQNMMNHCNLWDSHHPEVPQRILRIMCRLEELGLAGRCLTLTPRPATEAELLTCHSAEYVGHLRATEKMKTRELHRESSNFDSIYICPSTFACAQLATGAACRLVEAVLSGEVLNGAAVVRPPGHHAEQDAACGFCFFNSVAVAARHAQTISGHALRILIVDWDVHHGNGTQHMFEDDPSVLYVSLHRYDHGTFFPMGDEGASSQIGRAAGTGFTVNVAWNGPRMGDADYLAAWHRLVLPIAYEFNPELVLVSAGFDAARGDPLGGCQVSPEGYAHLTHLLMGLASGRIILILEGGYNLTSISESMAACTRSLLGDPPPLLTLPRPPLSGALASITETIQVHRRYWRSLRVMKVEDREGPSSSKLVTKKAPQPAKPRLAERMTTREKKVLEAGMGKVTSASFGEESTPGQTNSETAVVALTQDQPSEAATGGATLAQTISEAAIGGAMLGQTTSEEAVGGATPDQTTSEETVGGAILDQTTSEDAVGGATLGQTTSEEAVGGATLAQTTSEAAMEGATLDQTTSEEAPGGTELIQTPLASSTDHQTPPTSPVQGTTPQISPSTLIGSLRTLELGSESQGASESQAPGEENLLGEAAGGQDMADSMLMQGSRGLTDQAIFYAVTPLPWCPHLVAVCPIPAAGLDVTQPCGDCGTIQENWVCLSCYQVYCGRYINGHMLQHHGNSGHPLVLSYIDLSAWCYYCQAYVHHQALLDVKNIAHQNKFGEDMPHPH

Histone deacetylase 8 = target: T3, Histone deacetylase 8 (Homo sapiens, UniProt Q9BY41); assay: Inhibition of C-terminal His-tagged human recombinant full length HDAC8 (1 to 377 residues) expressed in Sf9 cells using Ac-Leu-Gly-Lys(trifluoroAc)-AMC as substrate preincubated with enzyme for 30 mins followed by substrate addition and measured after 90 mins by fluorescence based analysis
T3 sequence (Q9BY41 whole entry): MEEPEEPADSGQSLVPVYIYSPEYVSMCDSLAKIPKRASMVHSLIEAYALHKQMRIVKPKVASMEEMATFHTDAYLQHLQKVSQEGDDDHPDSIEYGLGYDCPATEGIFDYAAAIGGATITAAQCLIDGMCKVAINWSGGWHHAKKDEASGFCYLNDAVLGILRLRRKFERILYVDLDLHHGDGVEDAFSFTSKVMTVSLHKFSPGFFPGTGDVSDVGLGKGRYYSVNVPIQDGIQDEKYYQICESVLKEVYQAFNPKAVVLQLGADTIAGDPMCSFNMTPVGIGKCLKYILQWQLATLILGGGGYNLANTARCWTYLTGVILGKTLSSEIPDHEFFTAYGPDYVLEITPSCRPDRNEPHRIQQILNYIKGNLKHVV

Histone deacetylase 4 = Histone deacetylase 4 (Homo sapiens, UniProt P56524); assay: Inhibition of N-terminal GST-tagged/C-terminal His tagged human recombinant HDAC4 (627 to 1084 residues) expressed in baculovirus-infected Sf9 cells using Ac-Leu-Gly-Lys(trifluoroAc)-AMC as substrate preincubated with enzyme for 15 mins followed by substrate addition and measured after 60 mins by fluorescence based analysis
Histone deacetylase 4, sequence (P56524 whole entry, the tested form may be a part): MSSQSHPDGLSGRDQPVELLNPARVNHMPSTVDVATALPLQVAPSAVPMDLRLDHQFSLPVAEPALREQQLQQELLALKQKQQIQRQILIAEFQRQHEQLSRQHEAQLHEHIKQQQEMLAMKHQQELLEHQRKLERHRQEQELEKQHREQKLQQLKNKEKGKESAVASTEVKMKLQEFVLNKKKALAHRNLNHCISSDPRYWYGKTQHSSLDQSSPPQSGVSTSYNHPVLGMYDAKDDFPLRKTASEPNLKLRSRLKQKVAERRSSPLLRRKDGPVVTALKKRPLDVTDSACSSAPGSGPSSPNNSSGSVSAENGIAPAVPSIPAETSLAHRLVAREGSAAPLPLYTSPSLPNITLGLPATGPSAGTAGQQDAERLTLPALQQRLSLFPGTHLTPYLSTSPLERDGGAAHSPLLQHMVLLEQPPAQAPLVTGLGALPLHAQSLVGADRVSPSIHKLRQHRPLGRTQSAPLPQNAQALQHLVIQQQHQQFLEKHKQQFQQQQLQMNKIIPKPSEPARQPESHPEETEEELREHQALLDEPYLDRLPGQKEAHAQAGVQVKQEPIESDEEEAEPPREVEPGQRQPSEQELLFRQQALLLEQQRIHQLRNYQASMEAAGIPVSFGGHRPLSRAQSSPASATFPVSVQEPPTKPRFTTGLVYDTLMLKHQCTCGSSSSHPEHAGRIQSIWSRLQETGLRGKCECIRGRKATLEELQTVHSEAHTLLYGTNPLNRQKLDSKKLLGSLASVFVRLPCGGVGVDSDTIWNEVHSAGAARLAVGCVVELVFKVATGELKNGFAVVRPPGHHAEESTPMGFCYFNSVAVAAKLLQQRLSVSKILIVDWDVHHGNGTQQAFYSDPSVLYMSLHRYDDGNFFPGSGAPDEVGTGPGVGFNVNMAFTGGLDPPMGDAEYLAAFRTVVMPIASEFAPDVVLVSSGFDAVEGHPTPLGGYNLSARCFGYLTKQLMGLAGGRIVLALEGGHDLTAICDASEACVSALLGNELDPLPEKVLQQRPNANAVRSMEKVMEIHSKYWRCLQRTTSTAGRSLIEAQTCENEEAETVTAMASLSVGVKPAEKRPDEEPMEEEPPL

A549 = assay: Antiproliferative activity against human A549 cells assessed as inhibition of cell growth incubated for 72 hrs by MTT assay; format: functional, cell-based; conditions: A549, 72 h
SF-268 = assay: Antiproliferative activity against human SF-268 cells assessed as inhibition of cell growth incubated for 72 hrs by MTT assay; format: functional, cell-based; conditions: SF-268, 72 h
Caco-2 = assay: Antiproliferative activity against human Caco-2 cells assessed as inhibition of cell growth incubated for 72 hrs by MTT assay; format: functional, cell-based; conditions: Caco-2, 72 h
[3] = target: T4, Class 1 histone deacetylase (Homo sapiens) (UniProt Q13547+O15379+Q92769+Q9BY41); assay: Inhibition of class I HDAC in human A549 cells assessed as increase in histone H3 acetylation at 5 uM incubated for 48 hrs by immunoblot analysis; format: cell-based
[4] = target: T5, Protein deacetylase HDAC6 (Homo sapiens) (UniProt Q9UBN7); assay: Inhibition of HDAC6 in human A549 cells assessed as increase in acetylated alpha-tubulin level at 5 uM incubated for 48 hrs by immunoblot analysis; format: cell-based
T5 sequence (whole entry): T2 sequence (Q9UBN7 whole entry)

[5] = target: T4, Class 1 histone deacetylase (Homo sapiens); assay: Inhibition of class I HDAC in human A549 cells assessed as downregulation of EGFR gene expression at 5 uM incubated for 48 hrs by qRT-PCR analysis; format: cell-based
[6] = target: T4, Class 1 histone deacetylase (Homo sapiens); assay: Inhibition of class I HDAC in human A549 cells assessed as downregulation of ERBB2 gene expression at 5 uM incubated for 48 hrs by qRT-PCR analysis; format: cell-based
[7] = target: T4, Class 1 histone deacetylase (Homo sapiens); assay: Inhibition of class I HDAC in human A549 cells assessed as downregulation of STAT3 gene expression at 5 uM incubated for 48 hrs by qRT-PCR analysis; format: cell-based
[8] = target: T4, Class 1 histone deacetylase (Homo sapiens); assay: Inhibition of class I HDAC in human A549 cells assessed as downregulation of MYC gene expression at 5 uM incubated for 48 hrs by qRT-PCR analysis; format: cell-based
[9] = target: T4, Class 1 histone deacetylase (Homo sapiens); assay: Inhibition of class I HDAC in human A549 cells assessed as downregulation of EGFR protein expression at 5 uM incubated for 48 hrs by western blot analysis; format: cell-based
Histone deacetylase 1 [10] = target: T1, Histone deacetylase 1; assay: Inhibition of human recombinant HDAC1 using Ac-Leu-Gly-Lys(Ac)-AMC as substrate preincubated with enzyme for 30 mins followed by substrate addition and measured after 90 mins by fluorescence based analysis relative to control; conditions: time 120.0 min
[11] = Toxicity against human primary lung fibroblasts assessed as effect on cell viability upto 20 uM incubated for 72 hrs by MTT assay; format: cell-based; conditions: fibroblast
Mus musculus [12] = assay: Anti-fibrotic activity against BLM-induced pulmonary fibrosis C57BL/6 mouse model assessed as reduction in pulmonary edema by measuring decrease in total protein concentration in BALF at 30 mg/kg, ip bid for 15 days starting from 1 day before BLM challenge by Bradford assay; format: functional, organism-based; conditions: time 15.0 day
Mus musculus [13] = assay: Anti-fibrotic activity against BLM-induced pulmonary fibrosis C57BL/6 mouse model assessed as reduction in pulmonary inflammation by measuring decrease in cell number infiltration in BALF at 30 mg/kg, ip bid for 15 days starting from 1 day before BLM challenge by hematocytometer analysis; format: functional, organism-based; conditions: time 15.0 day
Mus musculus [14] = assay: Anti-fibrotic activity against BLM-induced pulmonary fibrosis C57BL/6 mouse model assessed as reduction in soluble collagen protein level in BALF at 30 mg/kg, ip bid for 15 days starting from 1 day before BLM challenge by Direct Red assay; format: functional, organism-based; conditions: time 15.0 day
Mus musculus [15] = assay: Anti-fibrotic activity against BLM-induced pulmonary fibrosis C57BL/6 mouse model assessed as reduction in Col1a1 gene expression in lungs at 30 mg/kg, ip bid for 15 days starting from 1 day before BLM challenge by qRT-PCR analysis; format: functional, organism-based; conditions: time 15.0 day
Mus musculus [16] = assay: Anti-fibrotic activity against BLM-induced pulmonary fibrosis C57BL/6 mouse model assessed as reduction in fibrotic masses in lungs at 30 mg/kg, ip bid for 15 days starting from 1 day before BLM challenge by Hematoxylin-Eosin staining based analysis; format: functional, organism-based; conditions: time 15.0 day
Mus musculus [17] = assay: Anti-fibrotic activity against BLM-induced pulmonary fibrosis C57BL/6 mouse model assessed as reduction in collagen deposition in lungs at 30 mg/kg, ip bid for 15 days starting from 1 day before BLM challenge by Sirius Red staining based analysis; format: functional, organism-based; conditions: time 15.0 day
Fibroblast = assay: Anti-fibrotic activity in human primary lung fibroblast assessed as inhibition of TGFbeta1-induced COL1A1 mRNA expression at 5 to 10 uM pretreated for 1 hr followed by TGFbeta1 stimulation and measured after 24 hrs by qRT-PCR analysis; format: functional, cell-based; conditions: dose 5-10 µM, time 25.0 hrs

| SMILES | IC50 (Histone deacetylase 1 [1]) [µM] | IC50 (Histone deacetylase 2) [µM] | IC50 (Histone deacetylase 3) [µM] | IC50 [2] [µM] | IC50 (Histone deacetylase 8) [µM] | IC50 (Histone deacetylase 4) [µM] | IC50 (A549) [µM] | IC50 (SF-268) [µM] | IC50 (Caco-2) [µM] | inhibition [3] | inhibition [4] | inhibition [5] | inhibition [6] | inhibition [7] | inhibition [8] | inhibition [9] | inhibition (Histone deacetylase 1 [10]) [%] | Activity [11] | Activity (Mus musculus [12]) | Activity (Mus musculus [13]) | further results |
| --- | --- | --- | --- | --- | --- | --- | --- | --- | --- | --- | --- | --- | --- | --- | --- | --- | --- | --- | --- | --- | --- |
| Nc1ccccc1NC(=O)c1ccc(COc2ccc(CNC(=O)[C@@H]3CCCN3Cc3ccccc3)cc2)cc1 | 0.113 | 0.192 | 0.387 | > 100 | > 10 | > 100 | 3.7 | 3.4 | 1.9 | Active | inactive | Active | inactive | inactive | inactive | Active | – | – | – | – | – |
| Nc1ccccc1NC(=O)c1ccc(COc2ccc(NC(=O)[C@@H]3CCC(=O)N3Cc3ccccc3)cc2)cc1 | 0.43 | – | – | > 10 | – | – | > 25 | > 25 | – | – | – | – | – | – | – | – | 75 | – | – | – | – |
| Nc1ccccc1NC(=O)c1ccc(COc2ccc(CNC(=O)C3CCCO3)cc2)cc1 (configuration not stated) | 0.111 | – | – | > 10 | – | – | > 25 | > 25 | – | – | – | – | – | – | – | – | 75 | – | – | – | – |
| Cl.Cl.Nc1ccccc1NC(=O)c1ccc(COc2ccc(CNC(=O)[C@H]3CCCN3)cc2)cc1 | 0.259 | – | 0.139 | > 10 | > 10 | > 100 | 6 | 3.1 | – | Active | inactive | – | – | – | – | Active | – | Non-Toxic | Active | Active | Activity (Mus musculus [14]): Active; Activity (Mus musculus [15]): Active; Activity (Mus musculus [16]): Active; Activity (Mus musculus [17]): Active; Activity (Fibroblast): Active |
| Nc1ccccc1NC(=O)c1ccc(COc2ccc(CNC(=O)[C@H]3CCC(=O)N3Cc3ccccc3)cc2)cc1 | 0.092 | 0.143 | 0.431 | > 100 | > 10 | > 100 | 3.9 | 3.4 | 1.9 | Active | inactive | Active | inactive | inactive | inactive | Active | – | – | – | – | – |
| Nc1ccccc1NC(=O)c1ccc(COc2ccc(CNC(=O)[C@@H]3CCC(=O)N3Cc3ccccc3)cc2)cc1 | 0.1 | 0.116 | 0.361 | > 100 | > 10 | > 100 | 6.8 | 4.8 | 1.9 | – | – | – | – | – | – | – | – | Non-Toxic | Active | Active | Activity (Mus musculus [14]): Active; Activity (Mus musculus [15]): Active; Activity (Mus musculus [16]): Active; Activity (Mus musculus [17]): Active; Activity (Fibroblast): Active |
